Experimental data taken from ChEMBL document CHEMBL4706752 (ACS Med Chem Lett, 2021).

Key:
[1] = Metabolic stability in human liver microsomes assessed as compound remaining after 10 mins; format: ADME, Microsome; conditions: read-out: Stabilty
[2] = Metabolic stability in mouse liver microsomes assessed as compound remaining after 10 mins; format: ADME, Microsome; conditions: read-out: Stabilty
[3] = Apparent permeability across apical to basolateral membrane in human Caco2 cells; format: ADME, cell-based; conditions: Caco-2
[4] = Protein binding in human serum assessed as fraction unbound; format: ADME, cell-free; conditions: read-out: PB
[5] = Protein binding in mouse serum assessed as fraction unbound; format: ADME, cell-free; conditions: read-out: PB
Cytochrome P450 2C8 = molecular target: T1, Cytochrome P450 2C8 (Homo sapiens, UniProt P10632); assay: Inhibition of CYP2C8 (unknown origin); format: ADME
T1 sequence (P10632 whole entry): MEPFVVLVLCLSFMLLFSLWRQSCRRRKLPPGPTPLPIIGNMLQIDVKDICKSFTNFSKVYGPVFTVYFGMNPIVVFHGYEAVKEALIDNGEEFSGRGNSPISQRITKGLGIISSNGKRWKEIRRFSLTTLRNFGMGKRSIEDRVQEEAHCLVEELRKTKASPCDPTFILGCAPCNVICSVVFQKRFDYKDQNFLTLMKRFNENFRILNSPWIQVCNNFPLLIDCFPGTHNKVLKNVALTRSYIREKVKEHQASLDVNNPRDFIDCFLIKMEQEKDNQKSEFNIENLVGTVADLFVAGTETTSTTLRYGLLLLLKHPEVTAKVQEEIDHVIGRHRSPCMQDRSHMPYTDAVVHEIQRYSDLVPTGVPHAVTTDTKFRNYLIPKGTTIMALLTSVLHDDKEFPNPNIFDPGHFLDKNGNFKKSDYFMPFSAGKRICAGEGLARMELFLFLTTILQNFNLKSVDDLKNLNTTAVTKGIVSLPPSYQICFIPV

Cytochrome P450 3A4 = Cytochrome P450 3A4 (Homo sapiens, UniProt P08684); assay: Inhibition of CYP3A4 (unknown origin); format: ADME
[6] = molecular target: T2, Nuclear receptor ROR-gamma (Homo sapiens, UniProt P51449); assay: Inverse agonist activity at human Gal4-fused RORgammat expressed in human Jurkat cells luciferase reporter gene assay; format: cell-based
T2 sequence (P51449 whole entry): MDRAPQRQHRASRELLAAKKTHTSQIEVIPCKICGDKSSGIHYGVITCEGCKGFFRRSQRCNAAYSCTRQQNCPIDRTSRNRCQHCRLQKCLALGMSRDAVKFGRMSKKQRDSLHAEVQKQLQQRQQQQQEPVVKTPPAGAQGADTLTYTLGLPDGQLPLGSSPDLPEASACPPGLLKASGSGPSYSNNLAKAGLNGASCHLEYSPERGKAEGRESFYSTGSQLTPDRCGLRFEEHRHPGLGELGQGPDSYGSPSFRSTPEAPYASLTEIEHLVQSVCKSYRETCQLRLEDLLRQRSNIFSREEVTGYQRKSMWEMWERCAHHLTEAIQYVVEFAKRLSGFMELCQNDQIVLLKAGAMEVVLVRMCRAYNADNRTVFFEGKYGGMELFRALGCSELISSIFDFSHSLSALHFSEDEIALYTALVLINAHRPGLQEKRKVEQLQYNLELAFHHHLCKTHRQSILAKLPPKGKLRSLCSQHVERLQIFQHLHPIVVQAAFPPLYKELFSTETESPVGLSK

[7] = molecular target: T2, Nuclear receptor ROR-gamma; assay: Inverse agonist activity at RORgammat in human whole blood assessed as inhibition of anti-CD3/anti-CD28 monoclonal antibodies-stimulated IL-17A production measured by ELISA; format: tissue-based
[8] = Efflux ratio of apparent permeability across basolateral to apical side over apical to basolateral side in Caco2 cells; format: ADME, cell-based; conditions: human, Caco-2
Cytochrome P450 2C9 = Cytochrome P450 2C9 (Homo sapiens, UniProt P11712); assay: Inhibition of CYP2C9 (unknown origin); format: ADME
Cytochrome P450 2C19 = Cytochrome P450 2C19 (Homo sapiens, UniProt P33261); assay: Inhibition of CYP2C19 (unknown origin); format: ADME
Chain of Cytochrome P450 2C19 (P33261 whole entry): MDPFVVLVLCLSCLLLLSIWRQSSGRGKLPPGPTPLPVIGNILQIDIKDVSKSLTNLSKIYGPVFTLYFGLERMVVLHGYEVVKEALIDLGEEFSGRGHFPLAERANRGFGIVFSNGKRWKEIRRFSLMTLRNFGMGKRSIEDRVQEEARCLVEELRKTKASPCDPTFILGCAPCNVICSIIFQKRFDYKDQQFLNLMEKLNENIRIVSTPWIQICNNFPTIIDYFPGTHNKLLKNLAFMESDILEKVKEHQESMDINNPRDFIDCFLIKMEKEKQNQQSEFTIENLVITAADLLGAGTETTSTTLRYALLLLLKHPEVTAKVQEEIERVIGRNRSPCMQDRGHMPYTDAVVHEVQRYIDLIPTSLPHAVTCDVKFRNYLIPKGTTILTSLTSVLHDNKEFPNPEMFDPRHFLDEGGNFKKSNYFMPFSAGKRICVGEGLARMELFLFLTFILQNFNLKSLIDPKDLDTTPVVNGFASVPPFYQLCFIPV

Chain of Cytochrome P450 2C9 (P11712 whole entry): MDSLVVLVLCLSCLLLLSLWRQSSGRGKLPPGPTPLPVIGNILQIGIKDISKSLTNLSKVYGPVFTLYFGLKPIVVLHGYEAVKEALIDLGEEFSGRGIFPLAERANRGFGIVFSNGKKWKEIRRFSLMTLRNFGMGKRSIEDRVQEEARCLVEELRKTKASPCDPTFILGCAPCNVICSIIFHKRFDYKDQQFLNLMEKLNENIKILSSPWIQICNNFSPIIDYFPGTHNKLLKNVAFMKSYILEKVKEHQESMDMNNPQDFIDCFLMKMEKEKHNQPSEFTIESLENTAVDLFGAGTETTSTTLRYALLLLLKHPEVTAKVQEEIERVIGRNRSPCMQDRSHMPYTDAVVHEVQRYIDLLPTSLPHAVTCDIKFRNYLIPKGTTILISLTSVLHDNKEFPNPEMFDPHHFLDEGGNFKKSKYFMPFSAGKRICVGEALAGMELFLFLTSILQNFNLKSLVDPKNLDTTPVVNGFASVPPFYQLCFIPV
Chain of Cytochrome P450 3A4 (P08684 whole entry, the tested form may be a part): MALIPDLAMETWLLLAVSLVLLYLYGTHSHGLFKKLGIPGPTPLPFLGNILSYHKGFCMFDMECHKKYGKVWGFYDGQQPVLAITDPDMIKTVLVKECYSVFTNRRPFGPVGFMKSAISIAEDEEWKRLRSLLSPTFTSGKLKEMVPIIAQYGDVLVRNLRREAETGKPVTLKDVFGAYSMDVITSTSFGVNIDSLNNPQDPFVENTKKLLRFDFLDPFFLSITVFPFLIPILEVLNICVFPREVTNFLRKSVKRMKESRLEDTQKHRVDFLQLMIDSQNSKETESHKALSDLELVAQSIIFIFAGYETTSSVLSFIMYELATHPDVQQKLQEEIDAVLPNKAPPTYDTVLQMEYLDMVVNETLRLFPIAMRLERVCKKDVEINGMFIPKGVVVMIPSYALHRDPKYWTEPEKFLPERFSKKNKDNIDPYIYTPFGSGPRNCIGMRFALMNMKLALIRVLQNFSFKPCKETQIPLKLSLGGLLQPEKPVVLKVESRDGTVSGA

Structure (SMILES) | remaining at 10 min [1] | remaining at 10 min [2] | Papp A→B [3] | fraction unbound [4] | fraction unbound [5] | IC50 (Cytochrome P450 2C8) | IC50 (Cytochrome P450 3A4) | EC50 [6] | EC50 [7] | efflux ratio [8] | IC50 (Cytochrome P450 2C9) | IC50 (Cytochrome P450 2C19)
N#CCCN1C(=O)CC[C@H]1C(=O)N1CC[C@@]2(S(=O)(=O)c3ccc(F)cc3)c3ccc(C(F)(C(F)(F)F)C(F)(F)F)cc3CC[C@@H]12 | 92% | 85% | 17 ×10⁻⁶ cm/s | 0.018 | 0.017 | 13 µM | 10 µM | – | – | – | – | –
C[C@@](O)(CS(C)(=O)=O)C(=O)N[C@@H]1CC[C@@]2(S(=O)(=O)c3ccc(F)cc3)c3ccc(C(F)(C(F)(F)F)C(F)(F)F)cc3CC[C@@H]12 | 98% | 84% | 6.4 ×10⁻⁶ cm/s | – | 0.004 | 5 µM | > 20 µM | 0.0025 µM | 0.039 µM | 0.5 | 12 µM | 15 µM
O=C(N[C@@H]1CC[C@@]2(S(=O)(=O)c3ccc(F)cc3)c3ccc(C(F)(C(F)(F)F)C(F)(F)F)cc3CC[C@@H]12)C1CCS(=O)(=O)CC1 | 100% | 95% | 7.3 ×10⁻⁶ cm/s | – | 0.003 | 6.5 µM | 5.8 µM | 0.0087 µM | 0.05 µM | 0.5 | 5.5 µM | > 20 µM
O=C(N[C@@H]1CC[C@@]2(S(=O)(=O)c3ccc(F)cc3)c3ccc(C(F)(C(F)(F)F)C(F)(F)F)nc3CC[C@@H]12)C1CCS(=O)(=O)CC1 | 100% | 82% | 8.1 ×10⁻⁶ cm/s | – | 0.022 | 16 µM | > 20 µM | 0.0084 µM | 0.067 µM | 2.2 | 9.5 µM | > 20 µM
O=C(C1CCS(=O)(=O)CC1)N1CC[C@@]2(S(=O)(=O)c3ccc(F)cc3)c3cnc(C(F)(C(F)(F)F)C(F)(F)F)cc3CC[C@@H]12 | 92% | 49% | – | – | – | – | – | 0.017 µM | 0.023 µM | – | – | –
CC(C)(O)C(=O)N[C@@H]1CC[C@@]2(S(=O)(=O)c3ccc(F)cc3)c3ccc(C(F)(C(F)(F)F)C(F)(F)F)nc3CC[C@@H]12 | 100% | 100% | 18 ×10⁻⁶ cm/s | – | 0.023 | 8.3 µM | > 20 µM | 0.0039 µM | 0.067 µM | 0.5 | 3.2 µM | > 20 µM
N#CCCN1C(=O)CC[C@H]1C(=O)N1CC[C@@]2(S(=O)(=O)c3ccc(F)cc3)c3ccc(C(F)(C(F)(F)F)C(F)(F)F)nc3CC[C@@H]12 | 100% | 83% | 19 ×10⁻⁶ cm/s | 0.071 | 0.051 | > 20 µM | 19 µM | 0.024 µM | 0.031 µM | 1.7 | – | –
O=C(C1CCS(=O)(=O)CC1)N1CC[C@@]2(S(=O)(=O)c3ccc(F)cc3)c3ncc(C(F)(C(F)(F)F)C(F)(F)F)cc3CC[C@@H]12 | 100% | 96% | – | – | – | – | – | 0.071 µM | – | – | – | –
O=C(C1CCS(=O)(=O)CC1)N1CC[C@@]2(S(=O)(=O)c3ccc(F)cc3)c3ccc(C(F)(C(F)(F)F)C(F)(F)F)nc3CC[C@@H]12 | 100% | 91% | 23 ×10⁻⁶ cm/s | – | 0.05 | 16 µM | > 20 µM | – | – | – | – | –
CC(C)(O)CC(=O)N[C@@H]1CC[C@@]2(S(=O)(=O)c3ccc(F)cc3)c3ccc(C(F)(C(F)(F)F)C(F)(F)F)nc3CC[C@@H]12 | 100% | 87% | 12 ×10⁻⁶ cm/s | – | 0.018 | 6.3 µM | 9.1 µM | 0.006 µM | 0.101 µM | 0.5 | 8.5 µM | 16 µM
C[C@](O)(CS(C)(=O)=O)C(=O)N[C@@H]1CC[C@@]2(S(=O)(=O)c3ccc(F)cc3)c3ccc(C(F)(C(F)(F)F)C(F)(F)F)nc3CC[C@@H]12 | 97% | 100% | – | – | – | – | – | – | – | – | – | –
N#CCCN1C(=O)CC[C@H]1C(=O)N1CC[C@@]2(S(=O)(=O)c3ccc(F)cc3)c3ncc(C(F)(C(F)(F)F)C(F)(F)F)cc3CC[C@@H]12 | 83% | 82% | 9.4 ×10⁻⁶ cm/s | 0.2 | 0.16 | > 20 µM | > 20 µM | – | – | – | – | –
N#CCCN1C(=O)CC[C@H]1C(=O)N1CC[C@@]2(S(=O)(=O)c3ccc(F)cc3)c3cnc(C(F)(C(F)(F)F)C(F)(F)F)cc3CC[C@@H]12 | 100% | 69% | 12 ×10⁻⁶ cm/s | 0.12 | 0.068 | > 20 µM | 12 µM | – | – | – | – | –
CC(C)(O)CC(=O)N[C@@H]1CC[C@@]2(S(=O)(=O)c3ccc(F)cc3)c3ccc(C(F)(C(F)(F)F)C(F)(F)F)cc3CC[C@@H]12 | 97% | 86% | 15 ×10⁻⁶ cm/s | 0.002 | 0.006 | 12 µM | 11 µM | – | – | – | 12 µM | 7.7 µM
C[C@](O)(CS(C)(=O)=O)C(=O)N[C@@H]1CC[C@@]2(S(=O)(=O)c3ccc(F)cc3)c3ccc(C(F)(C(F)(F)F)C(F)(F)F)cc3CC[C@@H]12 | 89% | 83% | 7.6 ×10⁻⁶ cm/s | – | 0.002 | 13 µM | > 20 µM | 0.0055 µM | 0.12 µM | 0.9 | 9.2 µM | 15 µM
O=C(C1CCS(=O)(=O)CC1)N1CC[C@@]2(S(=O)(=O)c3ccc(F)cc3)c3ccc(C(F)(C(F)(F)F)C(F)(F)F)cc3CC[C@@H]12 | 93% | 100% | 13 ×10⁻⁶ cm/s | 0.008 | 0.068 | 9.4 µM | 13 µM | – | – | – | – | –
